Converted amounts (≈) assume the structure as drawn.
Legend:
MKN-45 cells = experiment: MTT assay, cytotoxicity against MKN-45 cells; settings: Homo sapiens, MKN-45, 24 h, read-out: IC50 (drug concentration that resulted in 50% of cell viability)
Experimental: The MKN-45 cell line was subcultured with RPMI1640 medium (supplemented with L-glutamine and 10% FBS) in a 5% CO2 incubator at 37° C. for 48 hours, and was then used in the test.
The cell line prepared in (2) above was added to each well.
Then, the cells were cultured in a 5% CO2 incubator at 37° C. for 24 hours, and 50 μL of MTT reagent was added thereto at a concentration of 2 mg/mL. Then, the cells were incubated in an incubator at 37° C. for 4 hours.
The cell culture was centrifuged to remove the supernatant, and 200 μL of DMSO was added to each well to dissolve the MTT-stained precipitate, after which the OD540 value at a wavelength of 540 nm was measured with an ELISA reader.

[1] = G5, 20 mg/kg i.v., FIG. 2
Excerpt: Fifty 5-week-old BALB/c nude mice (produced by Central Lab Animal Inc., Korea) were purchased and acclimated for 1 week before use in the test.
The data are expressed as mean±S.D. The results were statistically analyzed by ONE-WAY ANOVA and Student's t-test methods.

[2] = system: solid tumor of MKN-45 cells; experiment: Solid tumor of MKN-45 cells in BALB/c nude mice, intratumoral administration; format: in vivo; settings: G5, 20 mg/kg intratumoral, FIG. 9
Experimental: After about 2 weeks, the ascites was collected and centrifuged at 2000 rpm, and the precipitate was washed twice and then stained with 0.4% […] blue, thereby obtaining 5×10^6 cells/100 μL.
In the first administration, a suspension volume of 50 μL/head was used regardless of body weight.
The medium dose used was a 2-fold dilution of the prepared injectable suspension, and the low dose used was a 4-fold dilution of the prepared injectable suspension.
The injectable suspension was dissolved by heating to a temperature of 42 to 45° C. on a water bath. Next, 20 μL of the solution was administered to the apex of the tumor by means of a 0.3 mL insulin syringe, and 10 μL of the solution was administered to each of three points of the bottom side of the tumor. Accordingly, a total of 50 μL of the solution was administered to the tumor.
On the final day of the test, the animals were biopsied and visually observed, and the mean weight of the tumors was measured.

CC(=O)O[C@H]1C(=O)[C@@]2(C)[C@H]([C@H](OC(=O)c3ccccc3)[C@]3(O)C[C@H](OC(=O)[C@H](O)[C@@H](NC(=O)c4ccccc4)c4ccccc4)C(C)=C1C3(C)C)[C@]1(OC(C)=O)CO[C@@H]1C[C@@H]2O [Paclitaxel]
IC50 (MKN-45 cells): 0.1 µg/mL (≈ 0.117 µM)
Decrease in body weight [1]: significant decrease in body weight
State of solid tumor (photographs) ([2]; 2 weeks after administration): proliferated
Proliferation of tumor cells [2]: ≥ 5 fold
